In the NIST ThermoML archive (doi:10.1021/acs.jced.6b00718):

Assay: xn = mol fraction of the nth substance listed
Conditions: 101 kPa, Liquid; for viscosity: Falling or rolling sphere viscometry; for mass density: Vibrating tube method; for electrical conductivity: Alternating current cell with electrodes

CCCC#N [butanenitrile] + CCCC[N+]1(C)CCCC1.O=S(=O)([N-]S(=O)(=O)C(F)(F)F)C(F)(F)F
Conditions	electrical conductivity [S/m]	mass density [kg/m3]	viscosity [mPa·s]
293.15 K, x2 = 0	–	791.1	0.88
293.15 K, x2 = 0.1003	–	965	–
293.15 K, x2 = 0.1009	–	–	1.51
293.15 K, x2 = 0.1987	–	–	2.73
293.15 K, x2 = 0.1994	–	1078.7	–
293.15 K, x2 = 0.3001	–	1160.1	–
293.15 K, x2 = 0.3002	–	–	6.43
293.15 K, x2 = 0.4	–	–	8.77
293.15 K, x2 = 0.4006	–	1220.4	–
293.15 K, x2 = 0.4999	–	1267.7	–
293.15 K, x2 = 0.5012	–	–	14.45
293.15 K, x2 = 0.6	–	1304.7	22.39
293.15 K, x2 = 0.7	–	1335.1	33.65
293.15 K, x2 = 0.8	–	1360.6	49.94
293.15 K, x2 = 0.9	–	–	73.01
293.15 K, x2 = 0.9007	–	1382	–
293.2 K, x2 = 0.1402	1.69	–	–
298.15 K, x2 = 0	–	786.4	0.86
298.15 K, x2 = 0.1003	–	960.4	–
298.15 K, x2 = 0.1009	–	–	1.45
298.15 K, x2 = 0.1987	–	–	2.53
298.15 K, x2 = 0.1994	–	1074.3	–
298.15 K, x2 = 0.3001	–	1155.4	–
298.15 K, x2 = 0.3002	–	–	5.72
298.15 K, x2 = 0.4	–	–	7.81
298.15 K, x2 = 0.4006	–	1216.1	–
298.15 K, x2 = 0.4999	–	1263.2	–
298.15 K, x2 = 0.5012	–	–	12.44
298.15 K, x2 = 0.6	–	1300	18.94
298.15 K, x2 = 0.7	–	1330.5	27.95
298.15 K, x2 = 0.8	–	1356	40.71
298.15 K, x2 = 0.9	–	–	58.33
298.15 K, x2 = 0.9007	–	1377.5	–
299.5 K, x2 = 0.1402	1.85	–	–
302.7 K, x2 = 0.1402	1.97	–	–
303.15 K, x2 = 0	–	781.8	0.84
303.15 K, x2 = 0.1003	–	955.7	–
303.15 K, x2 = 0.1009	–	–	1.37
303.15 K, x2 = 0.1987	–	–	2.37
303.15 K, x2 = 0.1994	–	1069.6	–
303.15 K, x2 = 0.3001	–	1150.8	–
303.15 K, x2 = 0.3002	–	–	5.13
303.15 K, x2 = 0.4	–	–	7.14
303.15 K, x2 = 0.4006	–	1211.4	–
303.15 K, x2 = 0.4999	–	1258.6	–
303.15 K, x2 = 0.5012	–	–	10.81
303.15 K, x2 = 0.6	–	1295.5	16.2
303.15 K, x2 = 0.7	–	1326	23.51
303.15 K, x2 = 0.8	–	1351.5	33.68
303.15 K, x2 = 0.9	–	–	47.41
303.15 K, x2 = 0.9007	–	1373	–
310 K, x2 = 0.1402	2.19	–	–
313.15 K, x2 = 0	–	772.4	0.81
313.15 K, x2 = 0.1003	–	946.2	–
313.15 K, x2 = 0.1009	–	–	1.25
313.15 K, x2 = 0.1987	–	–	2.07
313.15 K, x2 = 0.1994	–	1060.1	–
313.15 K, x2 = 0.3001	–	1141.4	–
313.15 K, x2 = 0.3002	–	–	4.22
313.15 K, x2 = 0.4	–	–	5.68
313.15 K, x2 = 0.4006	–	1202.1	–
313.15 K, x2 = 0.4999	–	1249.3	–
313.15 K, x2 = 0.5012	–	–	8.38
313.15 K, x2 = 0.6	–	1286.2	12.18
313.15 K, x2 = 0.7	–	1316.8	17.18
313.15 K, x2 = 0.8	–	1342.3	23.91
313.15 K, x2 = 0.9	–	–	32.67
313.15 K, x2 = 0.9007	–	1363.8	–
313.7 K, x2 = 0.1402	2.3	–	–
323.15 K, x2 = 0	–	763	0.78
323.15 K, x2 = 0.1003	–	936.8	–
323.15 K, x2 = 0.1009	–	–	1.17
323.15 K, x2 = 0.1987	–	–	1.84
323.15 K, x2 = 0.1994	–	1050.7	–
323.15 K, x2 = 0.3001	–	1132.1	–
323.15 K, x2 = 0.3002	–	–	3.52
323.15 K, x2 = 0.4	–	–	4.62
323.15 K, x2 = 0.4006	–	1192.9	–
323.15 K, x2 = 0.4999	–	1240.2	–
323.15 K, x2 = 0.5012	–	–	6.67
323.15 K, x2 = 0.6	–	1277.2	9.47
323.15 K, x2 = 0.7	–	1307.9	13.04
323.15 K, x2 = 0.8	–	1333.3	17.69
323.15 K, x2 = 0.9	–	–	23.59
323.15 K, x2 = 0.9007	–	1354.9	–
324.6 K, x2 = 0.1402	2.62	–	–
333.15 K, x2 = 0	–	753.5	0.75
333.15 K, x2 = 0.1003	–	927.3	–
333.15 K, x2 = 0.1009	–	–	1.12
333.15 K, x2 = 0.1987	–	–	1.65
333.15 K, x2 = 0.1994	–	1041.1	–
333.15 K, x2 = 0.3001	–	1122.9	–
333.15 K, x2 = 0.3002	–	–	3.03
333.15 K, x2 = 0.4	–	–	3.85
333.15 K, x2 = 0.4006	–	1183.7	–
333.15 K, x2 = 0.4999	–	1231	–
333.15 K, x2 = 0.5012	–	–	5.43
333.15 K, x2 = 0.6	–	1268.3	7.55
333.15 K, x2 = 0.7	–	1298.9	10.2
333.15 K, x2 = 0.8	–	1324.1	13.55
333.15 K, x2 = 0.9	–	–	17.71
333.15 K, x2 = 0.9007	–	1345.7	–
334 K, x2 = 0.1402	2.9	–	–

N#CCCCCC#N [hexanedinitrile] + CCCC[N+]1(C)CCCC1.O=S(=O)([N-]S(=O)(=O)C(F)(F)F)C(F)(F)F
Conditions	electrical conductivity [S/m]	mass density [kg/m3]	viscosity [mPa·s]
291.8 K, x2 = 0.2889	0.495	–	–
293.15 K, x2 = 0	–	962.3	7.17
293.15 K, x2 = 0.1002	–	1063.5	9.85
293.15 K, x2 = 0.1996	–	1138	13.22
293.15 K, x2 = 0.3004	–	1196.8	17.56
293.15 K, x2 = 0.3995	–	1243	25.01
293.15 K, x2 = 0.5001	–	1281.6	31
293.15 K, x2 = 0.6	–	1313.1	37.48
293.15 K, x2 = 0.7011	–	1340	48.32
293.15 K, x2 = 0.7996	–	1362.5	59.96
293.15 K, x2 = 0.8997	–	1382.3	77.23
295.2 K, x2 = 0.2889	0.551	–	–
298.15 K, x2 = 0	–	958.6	6.31
298.15 K, x2 = 0.1002	–	1059.5	8.45
298.15 K, x2 = 0.1996	–	1133.9	11.27
298.15 K, x2 = 0.3004	–	1192.5	14.79
298.15 K, x2 = 0.3995	–	1238.7	21.46
298.15 K, x2 = 0.5001	–	1277.3	25.62
298.15 K, x2 = 0.6	–	1308.6	30.92
298.15 K, x2 = 0.7011	–	1335.6	39.22
298.15 K, x2 = 0.7996	–	1358.2	48.21
298.15 K, x2 = 0.8997	–	1378	61.49
299.3 K, x2 = 0.2889	0.62	–	–
303.15 K, x2 = 0	–	954.8	5.53
303.15 K, x2 = 0.1002	–	1055.6	7.35
303.15 K, x2 = 0.1996	–	1129.8	9.71
303.15 K, x2 = 0.3004	–	1188.3	12.61
303.15 K, x2 = 0.3995	–	1234.4	18.54
303.15 K, x2 = 0.5001	–	1272.9	21.53
303.15 K, x2 = 0.6	–	1304.2	25.59
303.15 K, x2 = 0.7011	–	1331.2	32.33
303.15 K, x2 = 0.7996	–	1353.8	39.41
303.15 K, x2 = 0.8997	–	1373.5	49.74
303.9 K, x2 = 0.2889	0.702	–	–
313.15 K, x2 = 0	–	947.2	4.54
313.15 K, x2 = 0.1002	–	1047.6	5.72
313.15 K, x2 = 0.1996	–	1121.5	7.43
313.15 K, x2 = 0.3004	–	1179.9	9.44
313.15 K, x2 = 0.3995	–	1225.8	14.05
313.15 K, x2 = 0.5001	–	1264.2	15.63
313.15 K, x2 = 0.6	–	1295.3	18.34
313.15 K, x2 = 0.7011	–	1322.3	22.83
313.15 K, x2 = 0.7996	–	1344.8	27.42
313.15 K, x2 = 0.8997	–	1364.5	34.01
313.4 K, x2 = 0.2889	0.9	–	–
322.2 K, x2 = 0.2889	1.1	–	–
323.15 K, x2 = 0	–	939.8	3.73
323.15 K, x2 = 0.1002	–	1039.8	4.53
323.15 K, x2 = 0.1996	–	1113.4	5.86
323.15 K, x2 = 0.3004	–	1171.6	7.32
323.15 K, x2 = 0.3995	–	1217.3	10.01
323.15 K, x2 = 0.5001	–	1255.6	11.82
323.15 K, x2 = 0.6	–	1286.7	13.7
323.15 K, x2 = 0.7011	–	1313.6	16.83
323.15 K, x2 = 0.7996	–	1336	19.97
323.15 K, x2 = 0.8997	–	1355.6	24.42
332.9 K, x2 = 0.2889	1.37	–	–
333.15 K, x2 = 0	–	932.3	3.02
333.15 K, x2 = 0.1002	–	1031.9	3.74
333.15 K, x2 = 0.1996	–	1105.4	4.8
333.15 K, x2 = 0.3004	–	1163.3	5.87
333.15 K, x2 = 0.3995	–	1206.3	7.86
333.15 K, x2 = 0.5001	–	1246.8	9.21
333.15 K, x2 = 0.6	–	1277.9	10.59
333.15 K, x2 = 0.7011	–	1304.7	12.85
333.15 K, x2 = 0.7996	–	1326.7	15.09
333.15 K, x2 = 0.8997	–	1346.3	18.22
